Tests used:
[1] = molecular target: T1, Ddi2 (Homo sapiens, UniProt Q5TDH0); experiment: Inhibition of cleavage of fluorescently labeled ubiquitylated NeD-sfGFP by purified His6-Ddi2 (SDS-PAGE, fluorescence imaging); type: biochemical
T1 construct: His6-Ddi2
T1 sequence (Q5TDH0 1-399): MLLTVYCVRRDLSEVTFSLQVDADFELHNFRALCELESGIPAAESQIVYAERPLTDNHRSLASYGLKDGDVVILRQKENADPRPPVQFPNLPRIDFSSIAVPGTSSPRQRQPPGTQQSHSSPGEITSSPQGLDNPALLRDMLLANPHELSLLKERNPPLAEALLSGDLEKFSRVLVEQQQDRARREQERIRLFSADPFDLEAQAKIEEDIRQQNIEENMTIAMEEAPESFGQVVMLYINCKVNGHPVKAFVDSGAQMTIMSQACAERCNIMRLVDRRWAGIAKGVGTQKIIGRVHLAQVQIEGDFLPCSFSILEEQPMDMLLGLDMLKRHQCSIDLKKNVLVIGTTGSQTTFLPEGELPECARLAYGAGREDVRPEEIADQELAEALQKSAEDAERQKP

[2] = molecular target: the molecule itself; experiment: SEC; His-Ddi2 after Ni-NTA on a Superdex 16/60 column in 25 mM Hepes-KOH pH 8, 40 mM potassium acetate, 10% glycerol, 1 mM DTT

With `Cc1c(O)cccc1C(=O)N[C@@H](CSc1ccccc1)[C@H](O)CN1C[C@H]2CCCC[C@H]2C[C@H]1C(=O)NC(C)(C)C` [nelfinavir] the EC50 [1] was ~40 µM.

B1: His6-Ddi2 (natural protein, human, UniProt Q5TDH0 1-399, looked up)
chain: T1 sequence (Q5TDH0 1-399)
notes: Ddi2, human, from a pET16b plasmid (gift from Klara Saskova); Collected from gel filtration at a molecular weight consistent with dimerization; also called His-Ddi2; purified Ddi2; source: E. coli BL21 RIL (DE3) Codon Plus, purified (Ni-NTA, Superdex gel filtration)
B1: binds [2].

Reference: publication PMC9062259, “Mammalian Ddi2 is a shuttling factor containing a retroviral protease domain that influences binding of ubiquitylated proteins and proteasomal degradation” (The Journal of Biological Chemistry, 2022)
